The results in this text go back to ChEMBL document CHEMBL4811234, “Dihydro-β-agarofuran-Type Sesquiterpenoids from the Seeds of Celastrus virens and Their Multidrug Resistance Reversal Activity against the KB/VCR Cell Line” (J Nat Prod, 2021).

The structures appear in SMILES notation.

A short description of data set [1]: Cytotoxicity against human KB/VCR cells assessed as inhibition of cell proliferation at 20 uM measured after 72 hrs by CCK8 assay relative to control. Type of data set: cell-based.
The nature of data set [2]: Cytotoxicity against human KB/VCR cells assessed as inhibition of cell proliferation at 2 uM measured after 72 hrs by CCK8 assay relative to control. Type of data set: cell-based.

Consider `CC(=O)O[C@@H]1[C@@H]2[C@@H](OC(C)=O)[C@]3(OC2(C)C)[C@H](C)CC[C@H](OC(C)=O)[C@@]3(C)[C@@H]1OC(=O)c1ccccc1`, for which the inhibition at 72 h, 20 µM in data set [1] came to 2.4%. In addition, the inhibition at 72 h, 2 µM in data set [2] amounted to 1.6%.

Consider `CC(=O)O[C@@H]1[C@@H]2[C@@H](OC(C)=O)[C@]3(OC2(C)C)[C@H](C)C[C@H](OC(=O)/C=C/c2ccccc2)[C@H](OC(C)=O)[C@@]3(C)[C@@H]1OC(=O)c1ccccc1`, for which the inhibition at 72 h, 20 µM in data set [1] is -12.8%. Moreover, the inhibition at 72 h, 2 µM in data set [2] was determined as 0.7%.

With `CC(=O)O[C@H]1[C@@H]2[C@@H](OC(C)=O)[C@]3(OC2(C)C)[C@H](C)C[C@@H](OC(C)=O)[C@H](OC(C)=O)[C@@]3(C)[C@H]1OC(=O)c1ccccc1`, in data set [1], the inhibition at 72 h, 20 µM was -2%. Moreover, the inhibition at 72 h, 2 µM in data set [2] was -1.2%.

As for `CC(=O)O[C@@H]1[C@@H]2[C@@H](OC(C)=O)[C@]3(OC2(C)C)[C@H](C)C[C@@H](OC(C)=O)[C@H](OC(C)=O)[C@@]3(C)[C@@H]1OC(=O)c1ccccc1`, the inhibition at 72 h, 20 µM in data set [1] was -1.5%. Further, in data set [2], the inhibition at 72 h, 2 µM is 2.7%.

On to `COc1cc2c(cc1OC)CN(CCc1ccc(-n3nnc(-c4cc(OC)c(OC)cc4NC(=O)c4cc(=O)c5ccccc5o4)n3)cc1)CC2`, for which the inhibition at 72 h, 2 µM in data set [2] came to 23.1%.

Take `CC(=O)O[C@H]1CC[C@@H](C)[C@]23OC(C)(C)[C@H](C[C@H](OC(=O)c4ccccc4)[C@]12C)[C@H]3OC(C)=O`: the inhibition at 72 h, 20 µM in data set [1] was found to be 0.7%. For the same compound, in data set [2], the inhibition at 72 h, 2 µM was -1.1%.

In the case of `CC(=O)OC[C@]12[C@H](OC(C)=O)C(=O)[C@@H]3[C@@H](OC(C)=O)[C@]1(OC3(C)C)[C@H](C)[C@@H](O)[C@H](OC(C)=O)[C@@H]2OC(C)=O`, in data set [1], the inhibition at 72 h, 20 µM was found to be 9.2%. In addition, the inhibition at 72 h, 2 µM in data set [2] was -5.3%.

Regarding `CC(=O)OC[C@]12[C@H](OC(C)=O)C(=O)[C@@H]3[C@@H](OC(C)=O)[C@]1(OC3(C)C)[C@H](C)C[C@H](O)[C@@H]2OC(C)=O`, in data set [1], the inhibition at 72 h, 20 µM was found to be 2.6%. Moreover, the inhibition at 72 h, 2 µM in data set [2] was -2%.

`CC(=O)O[C@H]1[C@@H]2[C@@H](OC(=O)/C=C/c3ccccc3)[C@]3(OC2(C)C)[C@H](C)C[C@H](O)[C@H](OC(C)=O)[C@@]3(C)[C@H]1OC(=O)c1ccccc1`: the inhibition at 72 h, 20 µM in data set [1] was 76.9%. Further, in data set [2], the inhibition at 72 h, 2 µM is -20.3%.

For the compound `CC(=O)OC[C@]12[C@H](OC(C)=O)C(=O)[C@@H]3[C@@H](O)[C@]1(OC3(C)C)[C@H](C)[C@@H](O)[C@H](OC(C)=O)[C@@H]2OC(C)=O`, in data set [1], the inhibition at 72 h, 20 µM was 1.5%. Moreover, the inhibition at 72 h, 2 µM in data set [2] is -0.5%.

Take `CC(=O)O[C@H]1C[C@@H](C)[C@]23OC(C)(C)[C@H](C[C@H](OC(=O)c4ccccc4)[C@@]2(C)[C@@H]1OC(C)=O)[C@H]3OC(=O)c1ccccc1`: the inhibition at 72 h, 20 µM in data set [1] worked out at 57.9%. The inhibition at 72 h, 2 µM in data set [2] was 0%.

For the compound `CC(=O)O[C@@H]1C[C@@H](C)[C@]23OC(C)(C)[C@H]([C@@H](O)[C@H](OC(=O)c4ccccc4)[C@@]2(C)[C@H]1OC(C)=O)[C@H]3OC(=O)/C=C/c1ccccc1`, in data set [1], the inhibition at 72 h, 20 µM stood at 78.7%. Further, in data set [2], the inhibition at 72 h, 2 µM was 3.3%.

In the case of `CC(=O)O[C@H]1[C@@H]2[C@@H](OC(=O)c3cccnc3)[C@]3(OC2(C)C)[C@H](C)C[C@H](OC(C)=O)[C@@H](OC(C)=O)[C@@]3(C)[C@H]1OC(=O)c1ccccc1`, the inhibition at 72 h, 20 µM in data set [1] was -6.7%. For the same compound, the inhibition at 72 h, 2 µM in data set [2] is -3%.

On to `CC(=O)OC[C@]12[C@H](OC(C)=O)C(=O)[C@@H]3[C@@H](O)[C@]1(OC3(C)C)[C@H](C)[C@@H](OC(C)=O)[C@H](OC(C)=O)[C@@H]2OC(C)=O`, for which the inhibition at 72 h, 20 µM in data set [1] was 2.6%. Also, the inhibition at 72 h, 2 µM in data set [2] was 1.6%.

Take `CC(=O)O[C@@H]1[C@H]2[C@H](O)[C@H](OC(=O)c3ccccc3)[C@]3(C)[C@@H](OC(C)=O)[C@H](O)C[C@@H](C)[C@@]13OC2(C)C`: in data set [1], the inhibition at 72 h, 20 µM is -2.1%. Besides, the inhibition at 72 h, 2 µM in data set [2] was -1.9%.

In the case of `CC(=O)O[C@@H]1C[C@@H](C)[C@]23OC(C)(C)[C@H](C[C@H](OC(=O)c4ccccc4)[C@]2(C)[C@H]1OC(C)=O)[C@H]3OC(=O)/C=C/c1ccccc1`, in data set [1], the inhibition at 72 h, 20 µM was 81.8%. Moreover, the inhibition at 72 h, 2 µM in data set [2] is -5.3%.

In the case of `CCCCCC(=O)O[C@@H]1[C@@H]2[C@@H](OC(C)=O)[C@]3(OC2(C)C)[C@H](C)C[C@@H](OC(C)=O)[C@H](OC(C)=O)[C@@]3(C)[C@H]1OC(=O)c1ccccc1`, the inhibition at 72 h, 20 µM in data set [1] is -1.9%. Further, in data set [2], the inhibition at 72 h, 2 µM was -3.1%.

Take `CC(=O)O[C@H]1[C@@H]2[C@@H](OC(=O)/C=C/c3ccccc3)[C@]3(OC2(C)C)[C@H](C)C[C@@H](OC(C)=O)[C@H](OC(C)=O)[C@@]3(C)[C@H]1OC(=O)c1ccccc1`: the inhibition at 72 h, 20 µM in data set [1] was -3%. In data set [2], the inhibition at 72 h, 2 µM was -0.6%.

With `CC(=O)O[C@H]1CC[C@@H](C)[C@]23OC(C)(C)[C@H](C[C@H](OC(=O)c4ccccc4)[C@]12C)[C@H]3OC(=O)c1ccccc1`, the inhibition at 72 h, 20 µM in data set [1] stood at 77.9%. For the same compound, in data set [2], the inhibition at 72 h, 2 µM is -1.8%.

For `CC(=O)O[C@@H]1[C@@H]2[C@@H](OC(C)=O)[C@]3(OC2(C)C)[C@H](C)CC[C@H](OC(C)=O)[C@@]3(C)[C@H]1OC(=O)c1ccccc1`, the inhibition at 72 h, 20 µM in data set [1] is 3.2%. In data set [2], the inhibition at 72 h, 2 µM was found to be 2.4%.
